Assay results published in US5840684A, “Glycopeptide antibiotic derivatives” (Eli Lilly and Company, priority 1995, dated 1998).
Values after ≈ are worked out from the molar mass of the structure shown.

Legend:
[1] = test system: vancomycin-susceptible enterococci; assay: broth micro-dilution, mean geometric MIC; type: cell-based, Enterococcus faecium and Enterococcus faecalis; conditions: enterococci, 24-hour incubation
[2] = test system: Staphylococcus aureus 489; assay: broth micro-dilution MIC; type: cell-based
Experimental: (§1) The MIC's were determined using a standard broth micro-dilution assay.

[3] = test system: Staphylococcus aureus 447; assay: broth micro-dilution MIC; type: cell-based
Experimental: as §1

[4] = test system: Staphylococcus aureus 491; assay: broth micro-dilution MIC; type: cell-based
Experimental: as §1

[5] = test system: Staphylococcus aureus SA1199A; assay: broth micro-dilution MIC; type: cell-based
Experimental: as §1

[6] = test system: Entercoccus faecium 180-1; assay: broth micro-dilution MIC; type: cell-based
Experimental: as §1

Entercoccus faecium 180 = assay: broth micro-dilution MIC; type: cell-based; conditions: Entercoccus faecium 180
Experimental: (§2) The formula I compounds have in vitro and in vivo activity against Gram-positive pathogenic bacteria. The MIC's were determined using a standard broth micro-dilution assay.

Entercoccus faecium 2041 = assay: broth micro-dilution MIC; type: cell-based; conditions: Entercoccus faecium 2041
Experimental: as §2

[7] = test system: Enterococcus gallinarum 245; assay: broth micro-dilution MIC; type: cell-based; conditions: Enterococcus gallinarum 245
Experimental: as §2

[8] = test system: vancomycin-resistant enterococci; assay: broth micro-dilution, mean geometric MIC; type: cell-based, Enterococcus faecium and Enterococcus faecalis; conditions: enterococci, 24-hour incubation
[9] = test system: Staphylococcus aureus 446; assay: broth micro-dilution MIC; type: cell-based
Experimental: as §1

[10] = test system: Staphylococcus aureus X400; assay: broth micro-dilution MIC; type: cell-based
Experimental: as §1

Entercoccus faecium 276 = assay: broth micro-dilution MIC; type: cell-based
Experimental: as §1

[11] = test system: Streptococcus pyogenes C203; assay: broth micro-dilution MIC; type: cell-based
Experimental: as §1

[12] = test system: Staphylococcus epidermidis 270; assay: broth micro-dilution MIC; type: cell-based
Experimental: as §2

[13] = test system: Staphylococcus haemolyticus 415; assay: broth micro-dilution MIC; type: cell-based
Experimental: as §2

[14] = test system: Staphylococcus haemolyticus 105; assay: broth micro-dilution MIC; type: cell-based
Experimental: as §2

[15] = test system: Streptococcus pneumoniae P1; assay: broth micro-dilution MIC; type: cell-based
Experimental: as §2

[16] = test system: Staphylococcus aureus SA1199B; type: cell-based
Experimental: as §1

[17] = test system: Staphylococcus aureus X778; assay: broth micro-dilution MIC; type: cell-based
Experimental: as §1

[18] = test system: Staphylococcus aureus S13E; type: cell-based
Experimental: as §1

[19] = test system: Staphylococcus aureus SA1199; assay: broth micro-dilution MIC; type: cell-based
Experimental: as §1

SMILES	mean geometric MIC, Vancomycin Sensitive Strains [1] [µg/mL]	MIC [2] [µg/mL]	MIC [3] [µg/mL]	MIC [4] [µg/mL]	MIC [5] [µg/mL]	MIC [6] [µg/mL]	MIC (Entercoccus faecium 180) [µg/mL]	MIC (Entercoccus faecium 2041) [µg/mL]	MIC [7] [µg/mL]	mean geometric MIC, Vancomycin Resistant Strains [8] [µg/mL]	MIC [9] [µg/mL]	MIC [10] [µg/mL]	MIC (Entercoccus faecium 276) [µg/mL]	MIC [11] [µg/mL]	MIC [12] [µg/mL]	MIC [13] [µg/mL]	MIC [14] [µg/mL]	MIC [15] [µg/mL]	MIC [16] [µg/mL]	MIC [18] [µg/mL]	further results
CCCCCC1CCC(c2ccc(CNC3(C)CC(OC4C(Oc5c6cc7cc5Oc5ccc(cc5Cl)C(OC5CC(C)(N)C(O)C(C)O5)C5NC(=O)C(NC(=O)C7NC(=O)C(CC(N)=O)NC(=O)C(NC(=O)C(CC(C)C)NC)C(O)c7ccc(c(Cl)c7)O6)c6ccc(O)c(c6)-c6c(O)cc(O)cc6C(C(=O)O)NC5=O)OC(CO)C(O)C4O)OC(C)C3O)cc2)CC1 (stereo not shown) [Compound 34]	3.4	8 (≈ 4.36 µM)	8 (≈ 4.36 µM)	8 (≈ 4.36 µM)	2 (≈ 1.09 µM)	2 (≈ 1.09 µM)	4 (≈ 2.18 µM)	8 (≈ 4.36 µM)	4 (≈ 2.18 µM)	4.0											
CNC(CC(C)C)C(=O)NC1C(=O)NC(CC(N)=O)C(=O)NC2C(=O)NC3C(=O)NC(C(=O)NC(C(=O)O)c4cc(O)cc(O)c4-c4cc3ccc4O)C(OC3CC(C)(N)C(O)C(C)O3)c3ccc(c(Cl)c3)Oc3cc2cc(c3OC2OC(CO)C(O)C(O)C2OC2CC(C)(NCc3cncc(-c4ccccc4)c3)C(O)C(C)O2)Oc2ccc(cc2Cl)C1O (stereo not shown) [Compound 101]		≤ 0.06	1 (≈ 0.568 µM)	0.5 (≈ 0.284 µM)	0.5 (≈ 0.284 µM)	≤ 0.06		≤ 0.06	8 (≈ 4.55 µM)	4.0	0.5 (≈ 0.284 µM)	≤ 0.06	0.125 (≈ 0.071 µM)	≤ 0.06	0.5 (≈ 0.284 µM)	8 (≈ 4.55 µM)	1 (≈ 0.568 µM)	≤ 0.06	1 (≈ 0.568 µM)		
CNC(CC(C)C)C(=O)NC1C(=O)NC(CC(N)=O)C(=O)NC2C(=O)NC3C(=O)NC(C(=O)NC(C(=O)O)c4cc(O)cc(O)c4-c4cc3ccc4O)C(OC3CC(C)(N)C(O)C(C)O3)c3ccc(c(Cl)c3)Oc3cc2cc(c3OC2OC(CO)C(O)C(O)C2OC2CC(C)(NCc3ccc(N4CCC(C)CC4)cc3)C(O)C(C)O2)Oc2ccc(cc2Cl)C1O (stereo not shown) [Compound 129]	1.52	≤ 0.06	1 (≈ 0.562 µM)	0.5 (≈ 0.281 µM)	≤ 0.06	≤ 0.06	4 (≈ 2.25 µM)	≤ 0.06	0.125 (≈ 0.0702 µM)	27	2 (≈ 1.12 µM)		0.125 (≈ 0.0702 µM)	≤ 0.06	1 (≈ 0.562 µM)	4 (≈ 2.25 µM)	4 (≈ 2.25 µM)	≤ 0.06			
CNC(CC(C)C)C(=O)NC1C(=O)NC(CC(N)=O)C(=O)NC2C(=O)NC3C(=O)NC(C(=O)NC(C(=O)O)c4cc(O)cc(O)c4-c4cc3ccc4O)C(OC3CC(C)(N)C(O)C(C)O3)c3ccc(c(Cl)c3)Oc3cc2cc(c3OC2OC(CO)C(O)C(O)C2OC2CC(C)(NCc3ccc(O)c(O)c3)C(O)C(C)O2)Oc2ccc(cc2Cl)C1O (stereo not shown) [Compound 145]	1.3	≤ 0.06	1 (≈ 0.583 µM)	0.5 (≈ 0.292 µM)	≤ 0.06	≤ 0.06	4 (≈ 2.33 µM)				0.5 (≈ 0.292 µM)		0.125 (≈ 0.0729 µM)	≤ 0.06	1 (≈ 0.583 µM)	8 (≈ 4.67 µM)	2 (≈ 1.17 µM)	≤ 0.06	≤ 0.06	0.125 (≈ 0.0729 µM)	MIC [17]: 0.125 µg/mL (≈ 0.0729 µM)
CNC(CC(C)C)C(=O)NC1C(=O)NC(CC(N)=O)C(=O)NC2C(=O)NC3C(=O)NC(C(=O)NC(C(=O)O)c4cc(O)cc(O)c4-c4cc3ccc4O)C(OC3CC(C)(N)C(O)C(C)O3)c3ccc(c(Cl)c3)Oc3cc2cc(c3OC2OC(CO)C(O)C(O)C2OC2CC(C)(NCc3ccc(N4CCN(C)CC4)cc3)C(O)C(C)O2)Oc2ccc(cc2Cl)C1O (stereo not shown) [Compound 146]	1.5		2 (≈ 1.12 µM)	1 (≈ 0.562 µM)	≤ 0.06	≤ 0.06	8 (≈ 4.49 µM)	0.5 (≈ 0.281 µM)	0.5 (≈ 0.281 µM)		0.5 (≈ 0.281 µM)	0.5 (≈ 0.281 µM)	1 (≈ 0.562 µM)	≤ 0.06	2 (≈ 1.12 µM)	4 (≈ 2.25 µM)	2 (≈ 1.12 µM)	≤ 0.06	≤ 0.06	0.5 (≈ 0.281 µM)	MIC [19]: ≤ 0.06 µg/mL; MIC [17]: ≤ 0.06 µg/mL
CNC(CC(C)C)C(=O)NC1C(=O)NC(CC(N)=O)C(=O)NC2C(=O)NC3C(=O)NC(C(=O)NC(C(=O)O)c4cc(O)cc(O)c4-c4cc3ccc4O)C(OC3CC(C)(N)C(O)C(C)O3)c3ccc(c(Cl)c3)Oc3cc2cc(c3OC2OC(CO)C(O)C(O)C2OC2CC(C)(NCc3cccc(OC(=O)C4CCCCC4)c3)C(O)C(C)O2)Oc2ccc(cc2Cl)C1O (stereo not shown) [Compound 165]	0.062	2 (≈ 1.11 µM)	0.5 (≈ 0.276 µM)	0.5 (≈ 0.276 µM)	≤ 0.06	≤ 0.06	0.5 (≈ 0.276 µM)	≤ 0.06	4 (≈ 2.21 µM)	4.0	1 (≈ 0.553 µM)	0.5 (≈ 0.276 µM)	0.5 (≈ 0.276 µM)	≤ 0.06	1 (≈ 0.553 µM)	4 (≈ 2.21 µM)	4 (≈ 2.21 µM)	≤ 0.06	1 (≈ 0.553 µM)	≤ 0.06	
CNC(CC(C)C)C(=O)NC1C(=O)NC(CC(N)=O)C(=O)NC2C(=O)NC3C(=O)NC(C(=O)NC(C(=O)O)c4cc(O)cc(O)c4-c4cc3ccc4O)C(O)c3ccc(c(Cl)c3)Oc3cc2cc(c3OC2OC(CO)C(O)C(O)C2OC2CC(C)(NCc3cccc4ccccc34)C(O)C(C)O2)Oc2ccc(cc2Cl)C1O (stereo not shown) [Compound 180]	0.71	≤ 0.06		0.5 (≈ 0.315 µM)	≤ 0.06		8 (≈ 5.03 µM)	0.25 (≈ 0.157 µM)	0.25 (≈ 0.157 µM)	> 128		≤ 0.06	2 (≈ 1.26 µM)	≤ 0.06		2 (≈ 1.26 µM)	2 (≈ 1.26 µM)	≤ 0.06	≤ 0.06	≤ 0.06	MIC [17]: ≤ 0.06 µg/mL
